These results are taken from patent US20230190689A1, “METHODS AND COMPOSITIONS FOR INDUCING BROWN ADIPOGENESIS” (ENERGESIS PHARMACEUTICALS, INC., priority 2020, published 2023).

The subject of experiment [1] is CD34+ brown adipocyte progenitor cells. The experiment in a line: Multiplexed TaqMan real-time PCR of UCP1 and PPARγ2 mRNA (normalized to cyclophilin A) to quantify differentiation of CD34+ cells into brown adipocytes. The class given is cell-based, human. The settings on record: for differentiation of brown adipocyte progenitor cells into brown adipocytes, as indicated by expression of UCP1 and PPARγ2: in vitro, first screen at 10 μM, actives retested at 1 nM to 50 μM. The source says:
A robust method, previously disclosed, was used for detection of CD34+ cell differentiation into brown adipocytes by simultaneously quantifying mRNA species corresponding to the brown adipocyte marker UCP1, the adipocyte marker PPARγ2, and the “housekeeping” gene cyclophilin A which was used as the internal control.
This method permits analysis of a large number of samples to identify agents that enhance the differentiation of CD34+ cells into brown adipocytes. When differentiated into brown adipocytes, CD34+ cells express much higher levels of UCP1 and PPARγ2 mRNA for a given level of cyclophilin A. UCP1 and PPARγ2 mRNA levels normalized to cyclophilin A mRNA levels give an indication of the level of differentiation of the CD34+ cells into brown adipocytes, independent of the total number of cells in the sample.
Quantification of UCP1, PPARγ2 and cyclophilin A mRNA by multiplexed TaqMan real-time PCR was thus used to quantify differentiation of the CD34+ cells into brown adipocytes.
UCP1 is the key protein in brown adipocytes responsible for uncoupled respiration and is also highly specific for brown adipocyte differentiation. It is expressed exclusively by fully differentiated brown adipocytes and not by the CD34+ progenitor cells. We used a real-time semi-quantitative RT PCR-based assay for detection of UCP1 expression, in order to screen for brown adipocyte recruiters. […] The assay has the added advantage of allowing light microscopic visualization of the distinct morphological changes accompanying differentiation into brown adipocytes. This serves as further confirmation of differentiation.
(§1) Cells were seeded at 10,000 per cm^2 (48-well tissue culture, Chemglass #CLS-3500-048), cultured until confluency (1-4 days) at 37° C. in Endothelial cell growth medium-2 (EGM2) (BulletKit growth medium, Lonza #CC-3162) and until differentiation (6-12 more days). After 1-4 days in EGM2 media the cells were incubated with test agents (or positive controls) for 2-3 days (from day −3 or −2 to day 0). Rosiglitazone (1 μM) and rhBMP7 (6.3 nM) were used as reference agents (positive controls). Then (on day 0) the culture media (containing the test agents or positive controls) was removed, and minimal adipogenic medium (MDM) was added and the cells were left to differentiate of 6-12 days. The MDM media is a modification of the adipogenic media described by Rodriguez et al., and contains: DMEM/Ham's F-12 50/50 Mix (3.151 g/1, 17.5 mM D-glucose, 3.651 g/l L-glutamine) (Cellgro #10-090-CV), 5 μg/ml (0.86 μM) insulin, 1 μM dexamethasone, 100 μM 3-isobutyl-1-methylxanthine, 0.2 nM 3,3′,5-triiodo-L-thyronine, 10 μg/ml (127 nM) transferrin, and 1% penicillin-streptomycin. Adipocyte scores were determined by light microscopy and defined as the number of cells, on a per well basis, that contain multilocular lipid droplets, at the end of the differentiation of the cells, approximately 6 to 12 days following the end of compound treatment and switch into MDM media.
Total RNA was prepared from cells using PureLink RNA Isolation Kit (Invitrogen #12183-016). Alternatively, cells were simply lyzed by freezing (−80° C.). First strand cDNA were synthesized using the High Capacity cDNA Reverse Transcription kit (Applied Biosystems, Foster City, Calif.) and random primers.
Quantitative real-time PCR was performed using an Applied Biosystems StepOnePlus™ instrument, TaqMan Gene Expression Master Mix (Applied Biosystems #4369016), and custom TaqMan gene expression probes and primers for human uncoupling protein-1 “UCP1” (GenBank NM_021833) and for human peptidylprolyl isomerase A “cyclophilin A” (GenBank NM_021130).
Cyclophilin A was used as a control to account for any variations due to the efficiency of reverse transcription. Arbitrary units were determined by normalizing target mRNA levels to cyclophilin A mRNA levels (based on Cts).
Background: Quantitative PCR measures a nucleic acid by following its amplification.

The subject of experiment [2] is CD34+ cells. The experiment in a line: Light microscopy of CD34+ cells for brown adipocyte differentiation (multilocular lipid-containing cells). The class given is cell-based, human. The conditions noted are these: CD34+ cells 6 days following the end of compound treatment and switch into MDM media. As to the method: as §1
Pictures of cells were taken using a hand-held digital camera (Nikon Coolpix 950) and inverted microscope (Nikon TMS) used for cell culture observations; images were optimized using Paint.net version 4.0 functions for Auto-Level Brightness and Contrast.

In experiment [3] the test system is CD34+ cells. As to the kind of experiment: Quantification of UCP1 protein by fluorescence immunohistochemistry (IHC). It counts as cell-based, human. As for the experimental part: Culturing and differentiation of CD34+ cells into brown adipocytes were performed using adipogenic differentiation medium lacking (Minimal Differentiation Medium, MDM) or containing 1 μM rosiglitazone (Reference Differentiation Medium, RDM). After 15 days of differentiation cells were fixed with 4% Paraformaldehyde PBS pH 7.4, and incubated with a UCP1 antibody (Abcam ab23841) and Alexafluor 488 goat anti-rabbit antibody to quantify relative UCP1 levels (green) according to standard protocols. Prior to fixation of cells, nuclei were labeled with 5 μM DAPI (blue) for 10 minutes. Each treatment condition was evaluated in triplicate in a 96-well plate corresponding to approximately 360-480 cells for each data point in total. The InCell 1000 Developer Toolbox software was used to develop an automated cell detection script to measure UCP1 signal intensity, using the nuclei and cytoplasm detection algorithms. As a readout, total intensity of UCP1 signal within the cell was used, normalized to cell number.

In the next experiment the test system is DIO mice. The experiment in a line: DIO mouse study of metabolic health, once-daily oral gavage for 28 to 56 days. The class given is in vivo, C57Bl/6 mice. The settings on record: oral gavage once a day, bezafibrate 60 mg/kg, oxaprozin 50 mg/kg, vs vehicle. As to the method:
Obesity and insulin resistance, an early stage in the development of type 2 diabetes (or pre-diabetes), was induced in C57Bl/6 mice by feeding the mice with a high fat diet (Research diet, Cat #D12492, 60/a fat kcal) for 12 weeks starting at 6 weeks of age. The mice were maintained at 22-23° C. with abundant bedding material, maintaining the animals in an environmental temperature close to their thermoneutrality, starting 2 weeks prior to the dosing period and for the full dosing period with a 12 h/12 h light/dark cycle.
Mice were dosed once per day by oral gavage (200 μl per mouse), first for 3 days with the vehicle (PBS+0.5% CMC+0.1% Tween-80) as acclimation for running into the study, then with either vehicle alone or testing material dissolved in the vehicle for […] (4 to 8 weeks).
Body weight was recorded every 3 days, body composition (fat and lean mass with EchoMRI) was assessed at the end of the study (University of Cincinnati Mouse Metabolic Phenotyping Center), blood glucose level (measured with a glucometer) was monitored 3-5 days before (baseline) and at the end of the dosing period.
At the end of the dosing period, animals were fasted for 6 hours and euthanized by CO2, blood was collected, and plasma was isolated and saved at −20° C. Plasma glucose, insulin and leptin levels were assessed 3-5 days before (baseline) and at the end of the dosing period (mice were fasted for 6 hours before all plasma collection) (University of Cincinnati Mouse Metabolic Phenotyping Center). Insulin sensitivity was determined using the homeostasis model assessment of insulin resistance (HOMA-IR). HOMA-IR=(plasma insulin [microIU/ml] x plasma glucose [mM])/22.5.
The mice were maintained on a high fat diet (60% calories from fat) throughout the study. An overnight fast was performed the last night of the study in preparation for glucose tolerance testing.

Turning to `CCCN(CCC)S(=O)(=O)c1ccc(C(=O)O)cc1` [probenecid, Probenecid], in experiment [1], the “differentiation of brown adipocyte progenitor cells into brown adipocytes, as indicated by expression of UCP1 and PPARγ2” value (“differentiation” below) was “promote the differentiation of brown adipocyte progenitor cells into brown adipocytes”. Besides, the “brown adipocyte formation by light microscopy” value (“brown adipocyte formation” for short) in the experiment on CD34+ cells [2] is “promote brown adipocyte formation”. In the experiment on CD34+ cells [3], the “agents identified by quantification of UCP1 protein by fluorescence IHC” value is reported as “identified using this technique”.

For the molecule `CN1c2ccccc2C(NCCCCCCC(=O)O)c2ccc(Cl)cc2S1(=O)=O` (stereo not drawn) [tianeptine, Tianeptine], in experiment [1], the “differentiation” value is given as “promote the differentiation of brown adipocyte progenitor cells into brown adipocytes”. Moreover, the “brown adipocyte formation” value in the experiment on CD34+ cells [2] is on record as “promote brown adipocyte formation”.

For the molecule `CC(C)(Oc1ccc(CCNC(=O)c2ccc(Cl)cc2)cc1)C(=O)O` [bezafibrate, 2-(4-{2-[(4-chlorobenzoyl)amino]ethyl}phenoxy)−2-methylpropanoic acid], in experiment [1], the “differentiation” value was “promote the differentiation of brown adipocyte progenitor cells into brown adipocytes”. Moreover, the “brown adipocyte formation” value in the experiment with CD34+ cells [2] is given as “promote brown adipocyte formation”. The body fat mass entry in the experiment on DIO mice (MRI) is on record as “significant decreases”. Further, in the experiment with DIO mice, the body weight entry is given as “significant decreases”, the glycemia entry is given as “significant decreases”, the “insulin resistance index (HOMA-IR)” value is recorded as “significant decreases” and the plasma insulin result is “significant decreases”. Further, in the experiment on DIO mice, the plasma leptin result is “significant decreases”.

On to `O=C(O)c1cc(-c2ccc(F)cc2F)ccc1O` [diflunisal, Diflunisal], for which the “differentiation” value in experiment [1] is recorded as “promote the differentiation of brown adipocyte progenitor cells into brown adipocytes”. For the same molecule, in the experiment with CD34+ cells [2], the “brown adipocyte formation” value is “promote brown adipocyte formation”. Also, the “agents identified by quantification of UCP1 protein by fluorescence IHC” value with CD34+ cells [3] is on record as “identified using this technique”.

On to `O=C(O)/C=C/c1ccc(Cn2ccnc2)cc1` [ozagrel, (2E)−3-{4-[(1H-imidazol-1-yl)methyl]phenyl}prop-2-enoic acid], for which the “differentiation” value in experiment [1] is recorded as “promote the differentiation of brown adipocyte progenitor cells into brown adipocytes”. For the same molecule, the “brown adipocyte formation” value in the experiment with CD34+ cells [2] is recorded as “promote brown adipocyte formation”.

B1: BMP7: recombinant human BMP7 (rhBMP7), R&D Systems, reference agent (positive control) (protein, UniProt P18075 293-431, looked up)
Bone morphogenetic protein 7: STGSKQRSQNRSKTPKNQEALRMANVAENSSSDQRQACKKHELYVSFRDLGWQDWIIAPEGYAAYYCEGECAFPLNSYMNATNHAIVQTLVHFINPETVPKPCCAPTQLNAISVLYFDDSSNVILKKYRNMVVRACGCH
On to B1, for which the “recruitment of brown adipocytes” value in experiment [1] (CD34+ cells, rosiglitazone 1 μM, BMP7 6 nM (most effective individual concentrations), day −3 to d0) is recorded as “robustly increase the recruitment of brown adipocytes”. Further, in experiment [1] (positive controls), the “response of the UCP1/PPARγ2 RT-PCR assay to positive controls” value is listed as “appropriate dose-responsive behavior”. The “brown adipocyte formation” value in the experiment on CD34+ cells [2] is reported as “promote brown adipocyte formation”.
